Experimental data taken from EP0278686A1, “Pyridopyrimidines methods for their preparation and pharmaceutical formulations thereof” (THE WELLCOME FOUNDATION LIMITED, priority 1987, dated 1988).

Key:
[1] = biological target: T1, DHFR (Escherichia coli, UniProt P0ABQ4); assay: In vitro DHFR binding affinities (DHFR inhibition), E. coli enzyme; type: biochemical
T1 construct: DHFR isolated from bacterial and mammalian sources; endogenous in cells
Protocol: (§1) The inhibition by the title compound of DHFR isolated from bacterial and mammalian sources was determined using known procedures [B. Roth et al., J. Med. Chem., 24, 933 (1981)].

[2] = biological target: T2, DHFR (Rattus norvegicus, UniProt Q920D2); assay: In vitro DHFR binding affinities (DHFR inhibition), rat liver enzyme; type: biochemical
T2 construct: DHFR isolated from bacterial and mammalian sources; from tissue; host or cells: rat liver
T2 sequence (Q920D2 1-187): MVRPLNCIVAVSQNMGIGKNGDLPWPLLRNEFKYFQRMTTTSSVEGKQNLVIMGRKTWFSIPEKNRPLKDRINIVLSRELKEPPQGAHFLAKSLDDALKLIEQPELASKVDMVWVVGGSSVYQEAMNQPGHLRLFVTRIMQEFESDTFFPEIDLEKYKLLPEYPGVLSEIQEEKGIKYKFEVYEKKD
Protocol: as §1

[3] = test system: human T-cell line CCRF/CEM; assay: In vitro cytotoxicity in cell culture, CCRF/CEM; type: cell-based; settings: read-out: ED50 (the source's name)
Protocol: (§2) The cytotoxicity of the test compounds was determined in cell culture using the human T-cell line CCRF/CEM (ATCC CCL 119) and also the human breast cancer cell line MCF-7 [H.D. Soule, et al., J.. Nat. Cancer Inst., 51, 1409 (1973)].

[4] = test system: human breast cancer cell line MCF-7; assay: In vitro cytotoxicity in cell culture, MCF-7; type: cell-based; settings: MCF7, Cell line MCF-7, cytotoxicity, read-out: ED50 (the source's name)
Protocol: as §2

Row | Compound | IC50 [1] [nM] | IC50 [2] [nM] | EC50 [3] [nM] | EC50 [4] [nM]
1 | COc1ccc(O)c(Cc2cnc3nc(N)nc(N)c3c2C)c1 [Compound A, 2,4-diamino-5-methyl-6-(2-hydroxy-5-methoxybenzyl)pyrido[2,3-d] pyrimidine] | 8 | 18 | 400 | 790
2 | COc1ccc(O)cc1Cc1cnc2nc(N)nc(N)c2c1C [Compound B, 2,4-diamino-5-methyl-6-(5-hydroxy-2-methoxybenzyl)pyrido[2,3-d] pyrimidine] | 16 | 12 | 80 | 750
